The assay relates to KRAS G12V dependent lung adenocarcinoma cell line, NCI-H441. The experiment in a line: Cellular pERK (Thr202/Tyr204) FRET/HTRF assay. The class given is cell-based. From the text:
“Ras” refers to a protein in the Ras superfamily of small GTPases, such as in the Ras subfamily. […] The Ras proteins play a critical role in the regulation of cell behaviors, including proliferation, differentiation, and survival. […] KRAS G12V, G12D, and G12S variants are common in human cancers and Ras inhibitors binding in or near the Switch II pocket may provide mutant binding selectivity. RAS mutations are known to be often associated with pancreatic, colorectal and non-small-cell lung carcinomas (Lone, A. M. et al. J. Am. Chem. Soc. 2011,133, 11665-74, which is entirely incorporated herein by reference; Dillon, M. B.; Bachovchin, D. A.; Brown, S. J.; Finn, M. G.; Rosen, H.; Cravatt, B. F.; Mowen, K. A. ACS Chem. Biol. 2012, 7, 1198-204, which is entirely incorporated herein by reference; Bachovchin, D. A.; Brown, S. J.; Rosen, H.; Cravatt, B. F. Nat. Biotechnol. 2009, 27, 387-94, Ostrem, J. M.; Peters, U.; Sos, M. L.; Wells, J. A.; Shokat, K. M. Nature 2013, 503, 548-551. Ryan M. B. and Corcoran R. B, Nat. Rev Clin Onco. 2018, 11, 709-720.). Ras proteins are key members in the Ras/Raf/Mitogen-activated protein kinase (MAPK) signaling pathway. This pathway regulates a wide variety of cellular processes, including proliferation, differentiation, apoptosis, and stress responses. One way to measure the impact of an inhibitor of Ras proteins is to measure downstream phosphorylation of proteins in the MAPK pathway. The MAPK pathway includes extracellular signal-regulated kinases named ERK1 and ERK2, which are serine-threonine kinases that regulate cellular signaling under both normal and oncogenic conditions. ERK expression and hyperactivation via phosphorylation plays a major role in cancer progression and are downstream of Ras proteins. The assay used for measuring the downstream impact of Ras inhibition is the use of a highly sensitive cell-based readout of ERK phosphorylation (pERK) specifically on Threonine (Thr) 202 and Tyrosine (Tyr) 204 in a KRAS G12V dependent lung adenocarcinoma cell line, NCI-H441 (ATCC Cat #HTB-174). The assay described herein is suitable for assessing inhibition of Ras and can be tailored for any of the predominant oncogenic mutations in any isoform of Ras (e.g., KRAS, HRAS, and NRAS) by changing the cell line.
pERK was measured using an advanced pERK assay designed for the robust and highly sensitive quantification of ERK phosphorylation on Thr202/Tyr204. This assay is intended for the simple, rapid, and direct detection of endogenous levels of ERK1/2 in cells, but only when ERK is phosphorylated at Thr202 and Tyr204 (Perkin Elmer Catalog #64AERPEH). pERK was detected in a FRET based sandwich assay format using 2 different specific antibodies, one labelled with Eu3+-Cryptate (donor) and the second with d2 (acceptor). When the dyes are in close proximity, the excitation of the donor with a light source (laser or flash lamp) triggers a Fluorescence Resonance Energy Transfer (FRET) towards the acceptor, which in turn fluoresces at a specific wavelength (665 nm). The specific signal modulates positively in proportion to p-ERK1/2 (Thr202/Tyr204). The simple mix-and-read protocol eliminates all wash steps for faster analysis and high-quality output. Briefly, cells were diluted to the desired concentration per well based on a growth curve showing ˜75% confluence within a 24-hour time period at no less than 95% viability. Cell suspension (24 μL) were added into each well of 384-well culture plate and maintained in 37° C. 5% CO2 incubator overnight prior to assay. All compounds were transferred to stock plates using TECAN (EVO200) liquid handler using DMSO as the solubilizing and dilution agent. Test compounds were transferred onto adherent cells using an Echo655 liquid handler. DMSO was employed as negative control. Cells were incubated with test compounds for 1 hr in a 37° C., 5% CO2 incubator following compound addition. […]

Where [1] appears, read: Homo sapiens, NCI-H441, cellular pERK (Thr202/Tyr204) HTRF, NCI-H441 cells.
[2] abbreviates: cellular pERK HTRF, NCI-H441 (KRAS G12V) cells.
The mark [3] stands for this setting: cellular pERK (Thr202/Tyr204) HTRF, NCI-H441 cells.

Bounds are passed on as bounds.

In the case of `C=C1CN2CCC[C@@]2(COc2nc(N3CCOC[C@H]4[C@H](F)[C@H]43)c3cc(C(F)(F)F)c(-c4ccc(F)c5sc(N)c(C#N)c45)c(F)c3n2)C1` (atropisomer, axis not shown) [Example 432, 2-amino-7-fluoro-4-((S)-8-fluoro-4-((1S,7S,8S)-8-fluoro-5-oxa-2-azabicyclo[5.1.0]octan-2-yl)-2-(((S)-2-methylenetetrahydro-1H-pyrrolizin-7a(5H)-yl)methoxy)-6-(trifluoromethyl)quinazolin-7-yl)benzo[b]thiophene-3-carbonitrile], under setting [1], the IC50 (in general, the concentration that gives 50% inhibition) is below 50 nM.
Regarding `C=C1CN2CCC[C@@]2(COc2nc(N3CCOC[C@H]4[C@H](F)[C@H]43)c3cc(C(F)(F)F)c(-c4ccc(F)c5sc(N)c(C#N)c45)c(F)c3n2)C1` (atropisomer, axis not shown) [Example 433, 2-amino-7-fluoro-4-((R)-8-fluoro-4-((1S,7S,8S)-8-fluoro-5-oxa-2-azabicyclo[5.1.0]octan-2-yl)-2-(((S)-2-methylenetetrahydro-1H-pyrrolizin-7a(5H)-yl)methoxy)-6-(trifluoromethyl)quinazolin-7-yl)benzo[b]thiophene-3-carbonitrile], the IC50 (Homo sapiens, NCI-H441, cellular pERK HTRF, NCI-H441 (KRAS G12V) cells) lay within 500 to 10000 nM.
The compound `N#Cc1c(N)sc2c(F)ccc(-c3c(C(F)(F)F)cc4c(N5CCOC[C@H]6[C@H](F)[C@H]65)nc(OC[C@@]56CCCN5CC(=C(F)F)C6)nc4c3F)c12` (atropisomer, axis not shown) [Example 438, 2-amino-4-((R)-2-(((S)-2-(difluoromethylene)tetrahydro-1H-pyrrolizin-7a(5H)-yl)methoxy)-8-fluoro-4-((1S,7S,8S)-8-fluoro-5-oxa-2-azabicyclo[5.1.0]octan-2-yl)-6-(trifluoromethyl)quinazolin-7-yl)-7-fluorobenzo[b]thiophene-3-carbonitrile] came in with a half-maximal inhibitory concentration (IC50) under setting [2] of 500 to 10000 nM.
Compound `N#Cc1c(N)sc2c(F)ccc(-c3c(C(F)(F)F)cc4c(N5CCOC[C@H]6[C@H](F)[C@H]65)nc(OC[C@@]56CCCN5CC(=C(F)F)C6)nc4c3F)c12` (atropisomer, axis not shown) [Example 439, 2-amino-4-((S)-2-(((S)-2-(difluoromethylene)tetrahydro-1H-pyrrolizin-7a(5H)-yl)methoxy)-8-fluoro-4-((1S,7S,8S)-8-fluoro-5-oxa-2-azabicyclo[5.1.0]octan-2-yl)-6-(trifluoromethyl)quinazolin-7-yl)-7-fluorobenzo[b]thiophene-3-carbonitrile] registered an IC50 under setting [2] below 50 nM.
Under setting [3], `[2H]C([2H])(Oc1nc(N2CCOC[C@H]3[C@H](F)[C@H]32)c2cc(C#N)c(-c3ccc(F)c4sc(N)c(C#N)c34)c(F)c2n1)[C@@]12CCCN1C[C@H](F)C2` (atropisomer, axis not shown; (aS)) [Example 349, (S)-7-(2-amino-3-cyano-7-fluorobenzo[b]thiophen-4-yl)-8-fluoro-4-((1S,7S,8S)-8-fluoro-5-oxa-2-azabicyclo[5.1.0]octan-2-yl)-2-(((2R,7aS)-2-fluorotetrahydro-1H-pyrrolizin-7a(5H)-yl)methoxy-d2)quinazoline-6-carbonitrile] displayed an IC50 below 50 nM.
As to `[2H]C([2H])(Oc1nc(N2CCOC[C@H]3[C@H](F)[C@H]32)c2cc(C#N)c(-c3ccc(F)c4sc(N)c(C#N)c34)c(F)c2n1)[C@@]12CCCN1C[C@H](F)C2` (atropisomer, axis not shown; (aS)) [Example 351, (R)-7-(2-amino-3-cyano-7-fluorobenzo[b]thiophen-4-yl)-8-fluoro-4-((1S,7S,8S)-8-fluoro-5-oxa-2-azabicyclo[5.1.0]octan-2-yl)-2-(((2R,7aS)-2-fluorotetrahydro-1H-pyrrolizin-7a(5H)-yl)methoxy-d2)quinazoline-6-carbonitrile], the IC50 under setting [3] lay in the range of 500 to 10000 nM.
On to `[2H]C([2H])(Oc1nc(N2CCOC[C@H]3[C@H](F)[C@H]32)c2cc(Cl)c(-c3ccc(F)c4sc(N)c(C#N)c34)c(F)c2n1)[C@@]12CCCN1C[C@H](F)C2` (atropisomer, axis not shown; (aS)) [Example 352, 2-amino-4-((S)-6-chloro-8-fluoro-4-((1S,7S,8S)-8-fluoro-5-oxa-2-azabicyclo[5.1.0]octan-2-yl)-2-(((2R,7aS)-2-fluorotetrahydro-1H-pyrrolizin-7a(5H)-yl)methoxy-d2)quinazolin-7-yl)-7-fluorobenzo[b]thiophene-3-carbonitrile], for which the IC50 under setting [1] lay in the range of 500 to 10000 nM.
In turn, `[2H]C([2H])(Oc1nc(N2CCOC[C@H]3[C@H](F)[C@H]32)c2cc(F)c(-c3ccc(F)c4sc(N)c(C#N)c34)c(F)c2n1)[C@@]12CCCN1C[C@H](F)C2` (atropisomer, axis not shown; (aS)) [Example 356, 2-amino-4-((R)-6,8-difluoro-4-((1S,7S,8S)-8-fluoro-5-oxa-2-azabicyclo[5.1.0]octan-2-yl)-2-(((2R,7aS)-2-fluorotetrahydro-1H-pyrrolizin-7a(5H)-yl)methoxy-d2)quinazolin-7-yl)-7-fluorobenzo[b]thiophene-3-carbonitrile] yielded an IC50 under setting [3] of 500 to 10000 nM.
On the same count and under the same terms, in the case of `[2H]C([2H])(Oc1nc(N2CCOC[C@H]3[C@H](F)[C@H]32)c2cc(F)c(-c3ccc(F)c4sc(N)c(C#N)c34)c(F)c2n1)[C@@]12CCCN1C[C@H](F)C2` (atropisomer, axis not shown; (aS)) [Example 357, 2-amino-4-((S)-6,8-difluoro-4-((1S,7S,8S)-8-fluoro-5-oxa-2-azabicyclo[5.1.0]octan-2-yl)-2-(((2R,7aS)-2-fluorotetrahydro-1H-pyrrolizin-7a(5H)-yl)methoxy-d2)quinazolin-7-yl)-7-fluorobenzo[b]thiophene-3-carbonitrile] it was below 50 nM; in that of `[2H]C([2H])(Oc1nc(N2CCOC[C@H]3[C@H](F)[C@H]32)c2cc(C#N)c(-c3cc(N)cc4ccc(F)c(C#C)c34)c(F)c2n1)[C@@]12CCCN1C[C@H](F)C2` (atropisomer, axis not shown; (aS)) [Example 358, (S)-7-(3-amino-8-ethynyl-7-fluoronaphthalen-1-yl)-8-fluoro-4-((1S,7S,8S)-8-fluoro-5-oxa-2-azabicyclo[5.1.0]octan-2-yl)-2-(((2R,7aS)-2-fluorotetrahydro-1H-pyrrolizin-7a(5H)-yl)methoxy-d2)quinazoline-6-carbonitrile], below 50 nM; in that of `[2H]C([2H])(Oc1nc(N2CCOC[C@H]3[C@H](F)[C@H]32)c2cc(Cl)c(-c3cc(N)cc4ccc(F)c(C#C)c34)c(F)c2n1)[C@@]12CCCN1C[C@H](F)C2` (atropisomer, axis not shown; (aS)) [Example 359, 4-((R)-6-chloro-8-fluoro-4-((1S,7S,8S)-8-fluoro-5-oxa-2-azabicyclo[5.1.0]octan-2-yl)-2-(((2R,7aS)-2-fluorotetrahydro-1H-pyrrolizin-7a(5H)-yl)methoxy-d2)quinazolin-7-yl)-5-ethynyl-6-fluoronaphthalen-2-amine], below 50 nM.

Values taken from patent US20250282799A1, “SUBSTITUTED PYRIDO[4,3-d]PYRIMIDINES AS KRAS MODULATORS” (Alterome Therapeutics, Inc., priority 2023, published 2025).
